Earlier results, collected in US9801891B2, “Compositions and methods for lowering intraocular pressure” (ALLERGAN, INC., priority 2009, dated 2017).

Test system: alpha-2 adrenoceptor

Brc1c(N=C2NCCN2)ccc2nccnc12.O=C(O)C(O)C(O)C(=O)O [Brimonidine tartrate, 5-bromo-6-(2-imidazolidinylideneamino) quinoxaline L-tartrate]
Selectivity for the alpha-2 adrenoceptor over the alpha-1 adrenoreceptor: 1000 fold
